The values that follow come from article PMC11021760, “Quantum-assisted fragment-based automated structure generator (QFASG) for small molecule design: an in vitro study” (Frontiers in Chemistry, 2024).

Bounds are passed on as bounds.

What all share (type): biochemical
In one test the target is T1, CaMKK2 (h) (Homo sapiens, UniProt Q96RR4).
T1 construct: purchased DiscoverX/Eurofins
In words: CAMKK2 kinase activity assay (DiscoverX/Eurofins, radiometric [gamma-33P]-ATP). Particulars: ATP concentration of 10 µM. The protocol:
The assay is available as a product of DiscoverX/Eurofins. CaMKK2 (h) was incubated with 20 mM Tris/HCl pH 8.5, 0.2 mM EDTA, 0.5% BSA, 0.5 mM CaCl2, 0.016 mg/mL calmodulin, 150 µM […], 10 mM MgAcetate and [gamma-33P]-ATP (specific activity and concentration of 10 µM). The reaction was initiated by the addition of the Mg/ATP mix. After incubation for 40 min 13 at room temperature, the reaction was stopped by the addition of phosphoric acid to a concentration of 0.5%. An aliquot of the reaction was then spotted onto a filter and washed four times for 4 min in 0.425% phosphoric acid and once in methanol prior to drying and scintillation counting.

A further test deals with T2, ATM (h) (Homo sapiens, UniProt Q13315).
T2 construct: purchased DiscoverX/Eurofins
T2 sequence (Q13315 whole entry): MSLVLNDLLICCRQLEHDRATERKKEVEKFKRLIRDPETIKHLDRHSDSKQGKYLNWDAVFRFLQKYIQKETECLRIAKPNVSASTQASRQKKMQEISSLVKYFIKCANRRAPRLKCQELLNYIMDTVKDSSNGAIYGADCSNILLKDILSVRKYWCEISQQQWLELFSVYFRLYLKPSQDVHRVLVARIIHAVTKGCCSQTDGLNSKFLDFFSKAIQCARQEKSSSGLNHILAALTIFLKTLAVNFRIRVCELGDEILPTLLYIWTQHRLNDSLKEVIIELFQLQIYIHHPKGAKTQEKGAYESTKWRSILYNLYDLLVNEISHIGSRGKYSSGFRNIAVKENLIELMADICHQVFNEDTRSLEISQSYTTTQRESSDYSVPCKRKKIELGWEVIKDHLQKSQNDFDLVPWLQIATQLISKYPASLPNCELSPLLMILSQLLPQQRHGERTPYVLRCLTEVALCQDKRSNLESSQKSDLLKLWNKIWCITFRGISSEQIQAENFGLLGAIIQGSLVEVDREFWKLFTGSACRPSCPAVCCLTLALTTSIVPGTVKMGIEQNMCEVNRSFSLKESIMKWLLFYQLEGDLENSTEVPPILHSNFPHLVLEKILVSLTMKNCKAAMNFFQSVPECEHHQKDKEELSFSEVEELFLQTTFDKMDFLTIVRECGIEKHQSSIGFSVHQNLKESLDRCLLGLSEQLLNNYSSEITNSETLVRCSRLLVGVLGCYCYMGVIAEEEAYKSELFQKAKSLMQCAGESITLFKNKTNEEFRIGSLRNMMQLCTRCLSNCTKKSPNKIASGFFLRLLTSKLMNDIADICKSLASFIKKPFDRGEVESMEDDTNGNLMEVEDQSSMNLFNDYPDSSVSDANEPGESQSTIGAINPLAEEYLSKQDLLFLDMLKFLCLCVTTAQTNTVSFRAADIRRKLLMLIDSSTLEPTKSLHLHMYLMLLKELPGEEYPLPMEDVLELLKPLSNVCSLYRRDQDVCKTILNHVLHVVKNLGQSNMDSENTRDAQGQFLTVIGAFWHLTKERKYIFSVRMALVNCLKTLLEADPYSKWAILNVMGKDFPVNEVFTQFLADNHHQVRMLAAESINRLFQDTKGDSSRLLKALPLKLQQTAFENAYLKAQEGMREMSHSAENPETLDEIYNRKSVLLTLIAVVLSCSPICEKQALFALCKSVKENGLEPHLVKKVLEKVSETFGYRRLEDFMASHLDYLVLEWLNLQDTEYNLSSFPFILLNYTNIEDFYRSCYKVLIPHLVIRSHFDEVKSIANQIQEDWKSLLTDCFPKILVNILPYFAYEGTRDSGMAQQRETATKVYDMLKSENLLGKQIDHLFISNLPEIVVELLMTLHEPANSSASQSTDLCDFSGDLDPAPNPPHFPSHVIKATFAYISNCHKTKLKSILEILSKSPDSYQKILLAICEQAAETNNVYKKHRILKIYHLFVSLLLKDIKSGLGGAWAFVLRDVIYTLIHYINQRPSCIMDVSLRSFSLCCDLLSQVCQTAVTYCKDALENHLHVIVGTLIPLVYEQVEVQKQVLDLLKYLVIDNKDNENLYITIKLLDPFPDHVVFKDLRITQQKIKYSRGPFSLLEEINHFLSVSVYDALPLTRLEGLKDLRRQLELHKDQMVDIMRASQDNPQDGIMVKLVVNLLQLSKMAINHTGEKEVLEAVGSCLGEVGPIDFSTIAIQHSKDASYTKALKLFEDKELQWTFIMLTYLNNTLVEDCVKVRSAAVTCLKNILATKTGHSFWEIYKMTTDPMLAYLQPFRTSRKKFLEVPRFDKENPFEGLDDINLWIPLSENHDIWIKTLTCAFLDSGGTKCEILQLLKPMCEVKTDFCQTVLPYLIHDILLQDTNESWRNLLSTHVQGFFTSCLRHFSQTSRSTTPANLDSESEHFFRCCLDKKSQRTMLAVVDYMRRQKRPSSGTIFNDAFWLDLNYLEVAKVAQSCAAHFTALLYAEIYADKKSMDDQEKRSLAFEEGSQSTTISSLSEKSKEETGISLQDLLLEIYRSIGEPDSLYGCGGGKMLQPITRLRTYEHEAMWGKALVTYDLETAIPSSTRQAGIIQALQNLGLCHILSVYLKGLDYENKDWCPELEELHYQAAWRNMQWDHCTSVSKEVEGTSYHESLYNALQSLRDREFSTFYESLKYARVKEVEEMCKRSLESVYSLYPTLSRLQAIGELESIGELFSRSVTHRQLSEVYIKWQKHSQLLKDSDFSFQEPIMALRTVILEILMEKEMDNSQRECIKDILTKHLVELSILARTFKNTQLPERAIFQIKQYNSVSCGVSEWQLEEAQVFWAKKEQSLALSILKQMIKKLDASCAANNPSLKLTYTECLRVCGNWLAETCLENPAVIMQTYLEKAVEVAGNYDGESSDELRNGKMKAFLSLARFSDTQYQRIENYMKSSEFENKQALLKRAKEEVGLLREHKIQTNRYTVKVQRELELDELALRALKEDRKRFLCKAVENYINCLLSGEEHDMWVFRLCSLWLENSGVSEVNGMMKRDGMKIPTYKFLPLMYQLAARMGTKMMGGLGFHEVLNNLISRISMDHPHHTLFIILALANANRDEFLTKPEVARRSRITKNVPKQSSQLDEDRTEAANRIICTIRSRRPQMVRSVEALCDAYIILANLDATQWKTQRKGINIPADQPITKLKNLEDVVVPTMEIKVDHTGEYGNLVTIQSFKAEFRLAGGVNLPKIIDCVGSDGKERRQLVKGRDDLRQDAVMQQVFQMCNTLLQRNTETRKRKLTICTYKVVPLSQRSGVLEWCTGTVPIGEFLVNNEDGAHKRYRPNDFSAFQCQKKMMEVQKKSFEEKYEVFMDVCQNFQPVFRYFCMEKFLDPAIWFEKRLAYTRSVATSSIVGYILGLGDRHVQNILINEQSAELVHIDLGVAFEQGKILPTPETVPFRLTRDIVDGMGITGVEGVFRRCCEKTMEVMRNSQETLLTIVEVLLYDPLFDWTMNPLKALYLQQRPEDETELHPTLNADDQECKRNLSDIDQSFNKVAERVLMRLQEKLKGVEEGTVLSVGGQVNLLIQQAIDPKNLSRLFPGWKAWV
In words: ATM kinase activity assay (DiscoverX/Eurofins, HTRF). Particulars: ATP 10 µM; for remaining activity at 10 µM: compound at 10 μM, read-out: ATM residual activity at 10μM. The method, then: (§1) The assay is available as a product of DiscoverX/Eurofins. ATM (h) was incubated in assay buffer containing 30 nM GST-cMyc-p53 and Mg/ATP (concentration of 10 µM). The reaction is initiated by the addition of the Mg/ATP mix. After incubation for 30 min at room temperature, the reaction was stopped by the addition of stop solution containing EDTA. Finally, detection buffer was added, which contained a d2-labelled anti-GST monoclonal antibody and a europium-labelled anti-phospho Ser15 antibody against phosphorylated p53. The plate was then read in time-resolved fluorescence mode, and the homogeneous time-resolved fluorescence (HTRF) signal is determined according to the formula HTRF = 10000 x (Em665 nm/Em620 nm).
(In general: TR-FRET usually uses a lanthanide donor and a delayed reading to cut background.)

The next test addresses T3, DNA-PK (h) (Homo sapiens, UniProt P78527).
T3 construct: purchased DiscoverX/Eurofins
In words: DNA-PK kinase activity assay (DiscoverX/Eurofins, HTRF). Particulars: ATP 10 µM. The protocol:
as §1, with “DiscoverX/Eurofins. DNA-PK” for “DiscoverX/Eurofins. ATM”, “containing 50” for “containing 30”, “plate is” for “plate was”, “= 10,000 ×” for “= 10000 x”

A further test concerns the target T4, ATR/ATRIP (h) (Homo sapiens, UniProt Q13535).
T4 construct: purchased DiscoverX/Eurofins
In words: ATR kinase activity assay (DiscoverX/Eurofins, HTRF). Particulars: ATP 10 µM. The protocol:
as §1, with “DiscoverX/Eurofins. ATR/ATRIP” for “DiscoverX/Eurofins. ATM”, “containing 50” for “containing 30”, “reaction was” for “reaction is”, “plate is” for “plate was”, “signal was” for “signal is”, “= 10,000 ×” for “= 10000 x”

Consider `CC(=O)c1cn(-c2ccn3ncc(-c4cccc(C(=O)C5CNC5)c4)c3n2)cn1` [QFASG-1], for which the IC50 at CaMKK2 (h) was greater than 10 µM.
As for `CC(=O)c1ccc(-c2cnn3ccc(C(N)=O)nc23)cc1` [QFASG-2], at CaMKK2 (h), the midpoint of inhibition, the IC50, lay at 3 µM and the “hill slope (CAMKK2 dose-response)” value is −0.85.
On to `CNC(=O)Nc1ccc(-c2ccn3ncc(-c4c[nH]c(C#N)n4)c3n2)cc1` [QFASG-3], for which, at CaMKK2 (h), the IC50 was 6 µM and the “hill slope (CAMKK2 dose-response)” value was −1.05.
Take `Cc1cc(N(C)c2ccc3ncc(NCC(=O)O)cc3c2)n(C2CC2)n1` [QFASG-4]: the remaining activity at 10 µM on ATM (h) came to 98%.
For the compound `Cn1cc(-c2ccc3ncc(NC(=O)Nc4cccc(F)c4F)cc3c2)cn1` [QFASG-5], the remaining activity at 10 µM on ATM (h) came out at 71%.
As to `N#Cc1ccc2ncc(NC(=O)Nc3cccnc3)cc2c1` [QFASG-6, 1-(6-cyanoquinolin-3-yl)-3-(pyridin-3-yl) urea], on DNA-PK (h), the IC50 worked out at 8 µM and the “hill slope (DNA-PK dose-response)” value is listed as −0.85. On ATR/ATRIP (h), the “ATR inhibition (in words)” value is listed as “no ATR inhibition was observed” and the IC50 is greater than 10 µM. For the same compound, at ATM (h), the IC50 stood at 4 µM, the “hill slope (ATM dose-response)” value is listed as −1.1 and the remaining activity at 10 µM amounted to 31%.

One may read the IC50 as the midpoint of a concentration-inhibition curve. A high value points to weaker potency in that assay.
